Measurements from publication PMC6934184, “Selective DNA-PKcs inhibition extends the therapeutic index of localized radiotherapy and chemotherapy” (The Journal of Clinical Investigation, 2019).

Target: T1, SRC (Homo sapiens, UniProt P12931)
T1 construct: purchased Thermo Fisher Scientific (Life Technologies) SelectScreen
Experiment: SelectScreen Z'LYTE
Type: biochemical
Summary of the method: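 Percent values come from Thermo SelectScreen profiling of NU5455, combining activity and binding assays. CSF1R was run in Z'LYTE format at Km app ATP, and CAMK1 in Adapta format with ATP listed at 10.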

T1 sequence (P12931 whole entry): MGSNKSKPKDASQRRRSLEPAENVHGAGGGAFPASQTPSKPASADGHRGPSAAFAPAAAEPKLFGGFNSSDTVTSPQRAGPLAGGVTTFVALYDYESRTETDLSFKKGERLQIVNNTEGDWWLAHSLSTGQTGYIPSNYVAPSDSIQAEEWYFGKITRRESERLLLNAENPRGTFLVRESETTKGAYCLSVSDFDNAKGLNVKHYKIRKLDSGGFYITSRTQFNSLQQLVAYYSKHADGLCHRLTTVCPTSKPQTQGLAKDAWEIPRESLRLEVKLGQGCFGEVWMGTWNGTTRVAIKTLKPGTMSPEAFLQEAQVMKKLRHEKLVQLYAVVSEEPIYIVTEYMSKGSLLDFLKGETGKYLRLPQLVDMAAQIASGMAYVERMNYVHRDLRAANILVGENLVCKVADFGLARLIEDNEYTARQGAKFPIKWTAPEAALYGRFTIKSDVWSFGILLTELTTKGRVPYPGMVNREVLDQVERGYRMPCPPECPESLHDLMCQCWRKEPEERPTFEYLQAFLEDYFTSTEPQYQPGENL

## CN(C(=O)CN1CCOCC1)c1ccc2sc3c(-c4cccc5c(=O)cc(N6CC7CCC(C6)O7)oc45)cccc3c2c1 [NU5455]
  inhibition at 1 µM: 9.5%
